Blank lines part the entries; values can stand above or below the molecule they belong to.
Key:
Cytochrome P450 3A4 [1] = target: T1, Cytochrome P450 3A4 (Homo sapiens, UniProt P08684); assay: Inhibition of CYP3A4 (unknown origin) using testosterone as substrate; type: ADME
[2] = Microsomal stability in rat liver microsomes assessed as intrinsic clearance; type: ADME, Microsome; settings: read-out: CLH
[3] = Microsomal stability in human liver microsomes assessed as intrinsic clearance; type: ADME, Microsome; settings: read-out: CLH
[4] = target: T2, Endoplasmic reticulum aminopeptidase 1 (Homo sapiens, UniProt Q9NZ08)
Description: Inhibition of wild type ERAP1 (unknown origin) using L-Rho-Succ-FKARKF as substrate preincubated for 15 mins followed by substrate addition and measured after 20 mins by flourescence assay

Cytochrome P450 3A4 [5] = target: T1, Cytochrome P450 3A4; assay: Inhibition of CYP3A4 (unknown origin) using midazolam as substrate; type: ADME
[6] = target: Endoplasmic reticulum aminopeptidase 2 (Homo sapiens, UniProt Q6P179); assay: Inhibition of ERAP2 (unknown origin) using Arg-AMC as substrate
Aminopeptidase N = Aminopeptidase N (Homo sapiens, UniProt P15144); assay: Inhibition of APN (unknown origin) using Ala-AMC as substrate
[7] = Microsomal stability in mouse liver microsomes assessed as intrinsic clearance; type: ADME, Microsome; settings: read-out: CLH
[8] = Permeability of compound across apical to basolateral side in human Caco2 cells; type: ADME, cell-based; settings: Caco-2, read-out: permeability
[9] = target: T2, Endoplasmic reticulum aminopeptidase 1; settings: dose 10.0 µM, time 30.0 min
[10] = Stability in human hepatocytes assessed as intrinsic clearance; type: ADME, cell-based, Hepatocyte
[11] = target: T2, Endoplasmic reticulum aminopeptidase 1; assay: Inhibition of ERAP1 (unknown origin) using L-Rho-Succ-FKARKF as substrate
[12] = target: T2, Endoplasmic reticulum aminopeptidase 1; assay: Inhibition of ERAP1 (unknown origin) using L-Rho-Succ-AFKARKF as substrate
[13] = target: T2, Endoplasmic reticulum aminopeptidase 1; assay: Inhibition of ERAP1 (unknown origin) using L-Rho-(D)-Q as substrate
[14] = substrate: CC(C)C[C@H](N)C(=O)Nc1ccc2c(c1)Oc1cc(NC(=O)[C@@H](CCC(N)=O)N[C@@H](Cc3ccccc3)C(=O)N[C@@H](CCCCN)C(=O)N[C@@H](C)C(=O)N[C@@H](CCCNC(=N)N)C(=O)N[C@@H](CCCCN)C(=O)N[C@@H](Cc3ccccc3)C(=O)O)ccc1C21OC(=O)c2ccccc21; settings: Homo sapiens
[15] = substrate: CC(C)C[C@H](N)C(=O)Nc1ccc2c(c1)Oc1cc(NC(=O)[C@@H](CCC(N)=O)N[C@@H](C)C(=O)N[C@@H](Cc3ccccc3)C(=O)N[C@@H](CCCCN)C(=O)N[C@@H](C)C(=O)N[C@@H](CCCNC(=N)N)C(=O)N[C@@H](CCCCN)C(=O)N[C@@H](Cc3ccccc3)C(=O)O)ccc1C21OC(=O)c2ccccc21; settings: Homo sapiens
[16] = substrate: CC(C)C[C@H](N)C(=O)Nc1ccc2c(c1)Oc1cc(NC(=O)[C@@H](CCC(N)=O)N[C@@H](CCCCN)C(=O)N[C@@H](C)C(=O)N[C@@H](CCCNC(=N)N)C(=O)N[C@@H](CCCCN)C(=O)N[C@@H](Cc3ccccc3)C(=O)O)ccc1C21OC(=O)c2ccccc21; settings: Homo sapiens
Description: Inhibition of ERAP1 (unknown origin) using L-Rho-Succ-KARKF as substrate

[17] = substrate: CC(C)C[C@H](N)C(=O)Nc1ccc2c(c1)Oc1cc(NC(=O)[C@H](N)CCC(N)=O)ccc1C21OC(=O)c2ccccc21; settings: Homo sapiens

Endoplasmic reticulum aminopeptidase 2, sequence (Q6P179 whole entry): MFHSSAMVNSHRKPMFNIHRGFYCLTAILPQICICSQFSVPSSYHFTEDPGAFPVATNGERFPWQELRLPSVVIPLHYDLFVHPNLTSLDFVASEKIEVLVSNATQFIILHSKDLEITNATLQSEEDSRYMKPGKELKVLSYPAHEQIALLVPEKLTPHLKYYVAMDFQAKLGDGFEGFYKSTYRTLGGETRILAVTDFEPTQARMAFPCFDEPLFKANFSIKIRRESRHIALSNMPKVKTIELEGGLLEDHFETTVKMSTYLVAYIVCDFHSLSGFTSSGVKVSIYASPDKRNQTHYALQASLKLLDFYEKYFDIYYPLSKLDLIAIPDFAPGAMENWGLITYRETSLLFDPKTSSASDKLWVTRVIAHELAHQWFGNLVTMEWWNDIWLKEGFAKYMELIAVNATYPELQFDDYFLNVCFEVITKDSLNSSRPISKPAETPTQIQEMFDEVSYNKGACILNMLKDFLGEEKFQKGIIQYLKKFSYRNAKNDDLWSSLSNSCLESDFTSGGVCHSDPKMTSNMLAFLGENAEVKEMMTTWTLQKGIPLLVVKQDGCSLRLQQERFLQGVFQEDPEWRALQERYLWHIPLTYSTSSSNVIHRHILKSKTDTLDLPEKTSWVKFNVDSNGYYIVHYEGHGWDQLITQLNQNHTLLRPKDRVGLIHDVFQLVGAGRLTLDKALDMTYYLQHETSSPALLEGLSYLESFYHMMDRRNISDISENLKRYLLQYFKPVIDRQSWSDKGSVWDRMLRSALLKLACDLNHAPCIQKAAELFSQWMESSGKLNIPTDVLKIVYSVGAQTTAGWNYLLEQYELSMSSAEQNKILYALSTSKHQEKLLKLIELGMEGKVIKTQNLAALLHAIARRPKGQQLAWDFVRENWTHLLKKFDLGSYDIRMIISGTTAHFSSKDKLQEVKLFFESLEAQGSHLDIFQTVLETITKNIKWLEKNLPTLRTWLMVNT
Aminopeptidase N, sequence (P15144 whole entry): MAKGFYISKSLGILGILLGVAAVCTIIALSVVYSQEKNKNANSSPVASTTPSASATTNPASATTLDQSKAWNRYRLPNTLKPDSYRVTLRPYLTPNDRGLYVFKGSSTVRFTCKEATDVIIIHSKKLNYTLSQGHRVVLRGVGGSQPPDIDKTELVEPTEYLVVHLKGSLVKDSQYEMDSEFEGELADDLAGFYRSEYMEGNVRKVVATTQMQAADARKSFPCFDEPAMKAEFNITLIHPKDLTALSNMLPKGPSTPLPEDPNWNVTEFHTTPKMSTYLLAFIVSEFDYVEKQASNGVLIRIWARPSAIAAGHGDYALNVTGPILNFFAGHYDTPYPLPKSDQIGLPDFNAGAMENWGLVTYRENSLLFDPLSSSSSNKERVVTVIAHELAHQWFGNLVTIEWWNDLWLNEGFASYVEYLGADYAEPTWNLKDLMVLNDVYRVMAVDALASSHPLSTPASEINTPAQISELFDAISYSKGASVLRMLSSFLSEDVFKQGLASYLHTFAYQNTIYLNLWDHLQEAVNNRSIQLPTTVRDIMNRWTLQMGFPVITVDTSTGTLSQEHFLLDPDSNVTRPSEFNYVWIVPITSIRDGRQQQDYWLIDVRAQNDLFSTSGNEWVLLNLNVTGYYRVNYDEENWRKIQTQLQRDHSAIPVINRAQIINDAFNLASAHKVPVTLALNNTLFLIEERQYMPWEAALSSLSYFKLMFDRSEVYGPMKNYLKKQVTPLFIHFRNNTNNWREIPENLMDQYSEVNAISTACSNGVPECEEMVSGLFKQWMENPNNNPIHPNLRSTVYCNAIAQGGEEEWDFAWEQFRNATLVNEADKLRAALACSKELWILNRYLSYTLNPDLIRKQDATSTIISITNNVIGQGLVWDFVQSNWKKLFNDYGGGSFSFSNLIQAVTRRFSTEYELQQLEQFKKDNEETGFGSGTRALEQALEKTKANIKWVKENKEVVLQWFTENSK
T1 sequence (P08684 whole entry): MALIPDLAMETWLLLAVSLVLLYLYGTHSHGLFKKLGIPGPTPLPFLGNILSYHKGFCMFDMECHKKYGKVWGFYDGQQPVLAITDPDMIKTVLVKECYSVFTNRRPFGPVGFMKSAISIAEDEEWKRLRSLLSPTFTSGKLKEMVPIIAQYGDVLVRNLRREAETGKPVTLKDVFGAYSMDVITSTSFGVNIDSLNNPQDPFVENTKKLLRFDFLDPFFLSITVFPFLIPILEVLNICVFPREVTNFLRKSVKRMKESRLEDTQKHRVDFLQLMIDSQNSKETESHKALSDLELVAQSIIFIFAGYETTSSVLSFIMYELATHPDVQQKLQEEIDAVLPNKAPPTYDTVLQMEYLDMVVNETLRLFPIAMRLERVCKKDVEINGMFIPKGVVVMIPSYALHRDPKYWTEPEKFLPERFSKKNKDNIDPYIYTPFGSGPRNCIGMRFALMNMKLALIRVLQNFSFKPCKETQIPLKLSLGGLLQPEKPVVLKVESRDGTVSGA

Molecule: CC(C)(NC(=O)c1cc(F)cc2cc(-c3ccc(Cl)cc3)oc12)C(N)=O
IC50 [4]: > 10 µM

Molecule: O=C(NC1(C(=O)O)CCCCC1)c1cc(F)cc2cc(-c3ccc(Cl)cc3)oc12
IC50 [4]: 0.034 µM
IC50 [6]: > 30 µM
IC50 (Aminopeptidase N): > 30 µM

Molecule: CC(C)(NC(=O)c1cc(F)cc2cc(-c3ccc(Cl)cc3)oc12)C(=O)O
IC50 (Cytochrome P450 3A4 [1]): > 30 µM
microsomal CLint [2]: 25 µL/min/mg
microsomal CLint [3]: 33 µL/min/mg
IC50 [4]: 0.698 µM
IC50 (Cytochrome P450 3A4 [5]): > 30 µM
IC50 [6]: > 30 µM
IC50 (Aminopeptidase N): > 30 µM
microsomal CLint [7]: < 20 µL/min/mg
Papp A→B [8]: 10.8 ×10⁻⁶ cm/s
ΔTm [9]: 0.94 °C

Molecule: O=C(NC1(C(=O)O)CCC1)c1cc(F)cc2cc(-c3ccc(C(F)(F)F)cc3)oc12
IC50 [4]: 1.62 µM
Papp A→B [8]: 18.4 ×10⁻⁶ cm/s
ΔTm [9]: 0.5 °C

Molecule: CC(C)(NC(=O)c1cc(F)cc2cc(-c3ccc(Cl)cc3)oc12)c1nnn[nH]1
IC50 [4]: 0.275 µM

Molecule: CCC(C)(NC(=O)c1cc(F)cc2cc(-c3ccc(C(F)(F)F)cc3)oc12)C(=O)O (configuration not stated)
IC50 [4]: 2.68 µM

Molecule: COC(=O)C(C)(C)NC(=O)c1cc(F)cc2cc(-c3ccc(Cl)cc3)oc12
IC50 [4]: > 10 µM

Molecule: O=C(NC1(C(=O)O)CC1)c1cc(F)cc2cc(-c3ccc(Cl)cc3)oc12
IC50 [4]: 1.12 µM
IC50 [6]: > 30 µM
IC50 (Aminopeptidase N): > 30 µM

Molecule: O=C(NC1(C(=O)O)CCCC1)c1cc(F)cc2cc(-c3ccc(Cl)cc3)oc12
IC50 [4]: 0.099 µM
IC50 [6]: > 30 µM
IC50 (Aminopeptidase N): > 30 µM

Molecule: O=C(NC1(C(=O)O)CCCCC1)c1cccc2c(Br)c(-c3ccc(Cl)cc3)oc12
IC50 [4]: 0.151 µM
IC50 [6]: > 30 µM
IC50 (Aminopeptidase N): > 30 µM

B1: Endoplasmic reticulum aminopeptidase 1 (Homo sapiens), Q9NZ08 (protein)
chain: MVFLPLKWSLATMSFLLSSLLALLTVSTPSWCQSTEASPKRSDGTPFPWNKIRLPEYVIPVHYDLLIHANLTTLTFWGTTKVEITASQPTSTIILHSHHLQISRATLRKGAGERLSEEPLQVLEHPRQEQIALLAPEPLLVGLPYTVVIHYAGNLSETFHGFYKSTYRTKEGELRILASTQFEPTAARMAFPCFDEPAFKASFSIKIRREPRHLAISNMPLVKSVTVAEGLIEDHFDVTVKMSTYLVAFIISDFESVSKITKSGVKVSVYAVPDKINQADYALDAAVTLLEFYEDYFSIPYPLPKQDLAAIPDFQSGAMENWGLTTYRESALLFDAEKSSASSKLGITMTVAHELAHQWFGNLVTMEWWNDLWLNEGFAKFMEFVSVSVTHPELKVGDYFFGKCFDAMEVDALNSSHPVSTPVENPAQIREMFDDVSYDKGACILNMLREYLSADAFKSGIVQYLQKHSYKNTKNEDLWDSMASICPTDGVKGMDGFCSRSQHSSSSSHWHQEGVDVKTMMNTWTLQKGFPLITITVRGRNVHMKQEHYMKGSDGAPDTGYLWHVPLTFITSKSDMVHRFLLKTKTDVLILPEEVEWIKFNVGMNGYYIVHYEDDGWDSLTGLLKGTHTAVSSNDRASLINNAFQLVSIGKLSIEKALDLSLYLKHETEIMPVFQGLNELIPMYKLMEKRDMNEVETQFKAFLIRLLRDLIDKQTWTDEGSVSERMLRSQLLLLACVHNYQPCVQRAEGYFRKWKESNGNLSLPVDVTLAVFAVGAQSTEGWDFLYSKYQFSLSSTEKSQIEFALCRTQNKEKLQWLLDESFKGDKIKTQEFPQILTLIGRNPVGYPLAWQFLRKNWNKLVQKFELGSSSIAHMVMGTTNQFSTRTRLEEVKGFFSSLKENGSQLRCVQQTIETIEENIGWMDKNFDKIRVWLQSEKLERM
Km [14]: 3.1 µM
Km [15]: 2 µM
Km [16]: 3.7 µM
Km [17]: 31.8 µM

Other lines, results leading:

IC50 (Cytochrome P450 3A4 [1]): > 30 µM
microsomal CLint [2]: < 20 µL/min/mg
microsomal CLint [3]: 32 µL/min/mg
IC50 [4]: 0.377 µM
IC50 (Cytochrome P450 3A4 [5]): > 30 µM
IC50 [6]: > 30 µM
IC50 (Aminopeptidase N): > 30 µM
microsomal CLint [7]: 31 µL/min/mg
Papp A→B [8]: 8.5 ×10⁻⁶ cm/s
ΔTm [9]: 0.82 °C
CLH [10]: 0.25 mL/h/10^6 cells
Molecule: CCC(C)(NC(=O)c1cc(F)cc2cc(-c3ccc(Cl)cc3)oc12)C(=O)O (configuration not stated)

Ki [11]: 151 µM
Molecule: CC(C)C[C@H](N)C(=O)Nc1ccc2c(c1)Oc1cc(NC(=O)[C@@H](CCC(N)=O)N[C@@H](Cc3ccccc3)C(=O)N[C@@H](CCCCN)C(=O)N[C@@H](C)C(=O)N[C@@H](CCCNC(=N)N)C(=O)N[C@@H](CCCCN)C(=O)N[C@@H](Cc3ccccc3)C(=O)O)ccc1C21OC(=O)c2ccccc21 (some centres not stated)

IC50 [4]: 0.262 µM
IC50 [6]: > 30 µM
IC50 (Aminopeptidase N): > 30 µM
Molecule: O=C(N[C@H](Cc1ccccc1)C(=O)O)c1cc(F)cc2cc(-c3ccc(Cl)cc3)oc12

IC50 [4]: 4.44 µM
Molecule: C[C@H](NC(=O)c1cc(F)cc2cc(-c3ccc(Cl)cc3)oc12)C(=O)O

IC50 [4]: 0.12 µM
IC50 [6]: > 30 µM
IC50 (Aminopeptidase N): > 30 µM
Molecule: O=C(NC1(C(=O)O)CCCCC1)c1cccc2cc(-c3ccc(Cl)cc3)oc12

IC50 [4]: 1.76 µM
IC50 [6]: > 30 µM
IC50 (Aminopeptidase N): > 30 µM
Molecule: CC(C)(NC(=O)c1cccc2c(Br)c(-c3ccc(Cl)cc3)oc12)C(=O)O

Ki [12]: 563 µM
Molecule: CC(C)C[C@H](N)C(=O)Nc1ccc2c(c1)Oc1cc(NC(=O)[C@@H](CCC(N)=O)N[C@@H](C)C(=O)N[C@@H](Cc3ccccc3)C(=O)N[C@@H](CCCCN)C(=O)N[C@@H](C)C(=O)N[C@@H](CCCNC(=N)N)C(=O)N[C@@H](CCCCN)C(=O)N[C@@H](Cc3ccccc3)C(=O)O)ccc1C21OC(=O)c2ccccc21 (some centres not stated)

IC50 [4]: 1.03 µM
IC50 [6]: > 30 µM
IC50 (Aminopeptidase N): > 30 µM
Molecule: CC(C)(NC(=O)c1cccc2cc(-c3ccc(Cl)cc3)oc12)C(=O)O

IC50 [4]: 1.76 µM
IC50 [6]: > 30 µM
IC50 (Aminopeptidase N): > 30 µM
Molecule: O=C(N[C@@H](Cc1ccccc1)C(=O)O)c1cc(F)cc2cc(-c3ccc(Cl)cc3)oc12

Ki [13]: 335 µM
Molecule: CC(C)C[C@H](N)C(=O)Nc1ccc2c(c1)Oc1cc(NC(=O)[C@H](N)CCC(N)=O)ccc1C21OC(=O)c2ccccc21 (some centres not stated)

IC50 [4]: 1.97 µM
Molecule: CN(C(=O)c1cc(F)cc2cc(-c3ccc(Cl)cc3)oc12)C(C)(C)C(=O)O

IC50 [4]: 0.115 µM
IC50 [6]: > 30 µM
IC50 (Aminopeptidase N): > 30 µM
Molecule: O=C(NC1(C(=O)O)Cc2ccccc2C1)c1cc(F)cc2cc(-c3ccc(Cl)cc3)oc12

— ChEMBL document CHEMBL4823288, “Discovery and Optimization of a Series of Benzofuran Selective ERAP1 Inhibitors: Biochemical and In Silico Studies” (ACS Med Chem Lett, 2021)
